Experimental data as given in ChEMBL document CHEMBL3603819, “Targeting zoonotic viruses: Structure-based inhibition of the 3C-like protease from bat coronavirus HKU4--The likely reservoir host to the human coronavirus that causes Middle East Respiratory Syndrome (MERS)” (Bioorg Med Chem, 2015).

What follows are molecules tested on Tylonycteris bat coronavirus HKU4. Conditions: at 100 µM.

SMILES	inhibition
COCC(=O)N(c1ccc(C(C)C)cc1)C(C(=O)NC(C)(C)C)c1cccnc1 (centres undefined)	23%
CC(C)c1ccc(N(C(=O)c2n[nH]c3ccccc23)C(C(=O)NC(C)(C)C)c2cccnc2)cc1 (centres undefined)	21%
CC(C)(C)NC(=O)C(c1ccsc1)N(C(=O)c1n[nH]c2ccccc12)C1CC1 (centres undefined)	21%
Cc1nc2ccccc2n1CC(=O)N(c1ccc(C(C)(C)C)cc1)C(C(=O)NC(C)(C)C)c1ccsc1 (centres undefined)	19%
CC(C)(C)NC(=O)C(c1cccnc1)N(C(=O)c1ccco1)c1ccc(F)cc1 (centres undefined)	41%
CC(C)(C)NC(=O)C(c1ccsc1)N(C(=O)c1ccc(C#N)cc1)c1ccc(F)cc1 (centres undefined)	13%
O=C(Nc1ccc(N(Cc2ccsc2)C(=O)Cn2nnc3ccccc32)cc1)C1CC1	89%
Cc1nccn1CC(=O)N(c1ccc(C(C)(C)C)cc1)C(C(=O)NC(C)(C)C)c1ccsc1 (centres undefined)	11%
CC(C)(C)NC(=O)C(c1ccsc1)N(C(=O)Cc1cccnc1)c1ccc(F)cc1 (centres undefined)	24%
CC(C)(C)NC(=O)C(c1cccnc1)N(C(=O)Cc1cccnc1)c1ccc(F)cc1 (centres undefined)	47%
CC(C)c1ccc(N(C(=O)Cc2cccc3ccccc23)C(C(=O)NC(C)(C)C)c2ccsc2)cc1 (centres undefined)	13%
CC(C)(C)NC(=O)C(c1cccnc1)N(C(=O)Cc1cccnc1)C1CC1 (centres undefined)	48%
CC(C)(C)NC(=O)C(c1ccsc1)N(C(=O)c1ccc(C#N)cc1)C1CC1 (centres undefined)	20%
CC(=O)Nc1ccc(N(C(=O)Cn2cnc3ccccc32)C(C(=O)NC(C)(C)C)c2ccsc2)cc1 (centres undefined)	14%
CC(C)(C)NC(=O)C(c1cccnc1)N(C(=O)c1ccco1)c1ccc(NS(=O)(=O)c2ccccc2)cc1 (centres undefined)	16%
CC(C)c1ccc(N(C(=O)Cc2c[nH]c3ccccc23)C(C(=O)NC(C)(C)C)c2cccnc2)cc1 (centres undefined)	78%
CCCOc1ccc(N(C(=O)c2ccco2)C(C(=O)NC(C)(C)C)c2cccnc2)cc1 (centres undefined)	10%
CC(C)(C)NC(=O)C(c1cccnc1)N(C(=O)c1ccco1)c1ccc(OCc2ccccc2)cc1 (centres undefined)	14%
CC(C)(C)c1ccc(N(Cc2cccnc2)C(=O)c2c[nH]cn2)cc1	28%
CC(C)(C)NC(=O)C(c1ccsc1)N(C(=O)Cc1cccc2ccccc12)c1ccc(C(C)(C)C)cc1 (centres undefined)	15%
COc1cccc(Oc2ccc(N(C(=O)c3ccco3)C(C(=O)NC(C)(C)C)c3cccnc3)cc2)c1 (centres undefined)	18%
CC(C)(C)NC(=O)C(c1cccnc1)N(C(=O)c1ccc(C(F)(F)F)cn1)c1ccc(F)cc1 (centres undefined)	29%

SMILES	inhibition
CC(C)(C)NC(=O)C(c1cccnc1)N(C(=O)c1ccco1)C1CCCCC1 (centres undefined)	6%
O=C(Nc1ccc(N(Cc2ccsc2)C(=O)Cn2nnc3ccccc32)cc1)C1CCC1	94%
CC(C)(C)NC(=O)C(c1ccccn1)N(C(=O)c1cccnc1)c1ccc(C(C)(C)C)cc1 (centres undefined)	12%
CC(C)(C)NC(=O)C(c1ccsc1)N(C(=O)Cn1cnc2ccccc21)c1ccc(N)cc1 (centres undefined)	18%
CC(C)c1ccc(N(C(=O)c2cccc3c2CCCC3)C(C(=O)NC(C)(C)C)c2cccnc2)cc1 (centres undefined)	25%
CC(C)(C)NC(=O)C(c1ccncc1)N(C(=O)c1ccco1)c1ccc(C(C)(C)C)cc1 (centres undefined)	28%
CC(C)(C)NC(=O)C(c1ccsc1)N(C(=O)Cc1cccc2ccccc12)c1ccc(F)cc1 (centres undefined)	15%
CC(C)(C)NC(=O)C(c1cccnc1)N(C(=O)Cc1cccc2ccccc12)c1ccc(OCF)cc1 (centres undefined)	21%
CC(=O)Nc1ccc(N(C(=O)Cn2nnc3ccccc32)C(C(=O)NC(C)(C)C)c2cccc(F)c2)cc1 (centres undefined)	71%
CC(C)(C)NC(=O)C(c1cccnc1)N(C(=O)c1ccco1)c1ccc(-c2ccnc(F)c2)cc1 (centres undefined)	16%
CC(=O)Nc1ccc(N(C(=O)Cn2ccnn2)C(C(=O)NC(C)(C)C)c2ccsc2)cc1 (centres undefined)	27%
CNc1ccc(N(Cc2ccsc2)C(=O)Cn2nnc3ccccc32)cc1	91%
CC(C)(C)NC(=O)C(c1ccsc1)N(C(=O)Cc1c[nH]c2ccccc12)c1ccc(OCF)cc1 (centres undefined)	25%
CC(C)(C)NC(=O)C(c1c[nH]cn1)N(C(=O)c1ccco1)c1ccc(C(C)(C)C)cc1 (centres undefined)	9%
Cc1nc2ccccc2n1CC(=O)N(c1ccc(NC(=O)C(C)C)cc1)C(C(=O)NC(C)(C)C)c1ccsc1 (centres undefined)	14%
COc1ncc(-c2ccc(N(Cc3ccsc3)C(=O)Cn3nnc4ccccc43)cc2)cn1	83%
CC(C)(C)NC(=O)C(c1cccnc1)N(C(=O)c1ccco1)C12CC3CC(CC(C3)C1)C2 (centres undefined)	18%
CC(C)(C)NC(=O)C(c1cccnc1)N(C(=O)Cc1c[nH]c2ccccc12)c1ccc(OCF)cc1 (centres undefined)	52%
CC(C)(C)NC(=O)C(c1cccnc1)N(C(=O)Cc1cccc2ccccc12)c1ccc(C(C)(C)C)cc1 (centres undefined)	26%
CC(C)(C)NC(=O)C(c1cccnc1)N(C(=O)c1c[nH]c2ccccc12)C1CC1 (centres undefined)	49%
CC(C)c1ccc(N(C(=O)Cc2cccnc2)C(C(=O)NC(C)(C)C)c2cccnc2)cc1 (centres undefined)	41%
O=C(Cn1nnc2ccccc21)N(Cc1ccsc1)c1ccc(NC(=O)C(F)(F)F)cc1	92%

SMILES	inhibition
CC(C)(C)NC(=O)C(c1cccnc1)N(C(=O)c1cccc2c1CCCC2)c1ccc(F)cc1 (centres undefined)	22%
CC(C)(C)NC(=O)C(c1cccnc1)N(C(=O)c1ccc(C(F)(F)F)cn1)C1CC1 (centres undefined)	42%
CC(C)(C)NC(=O)C(c1cccnc1)N(C(=O)c1ccco1)c1ccc(-c2cccn2C(=O)OC(C)(C)C)cc1 (centres undefined)	17%
CC(C)(C)NC(=O)C(c1cccnc1)N(C(=O)c1ccc(Cl)cc1)c1ccc(C(C)(C)C)cc1 (centres undefined)	27%
Cc1nccn1CC(=O)N(c1ccc(NC(=O)C(C)C)cc1)C(C(=O)NC(C)(C)C)c1ccsc1 (centres undefined)	18%
CC(C)(C)NC(=O)C(c1cccnc1)N(C(=O)c1cnco1)c1ccc(C(C)(C)C)cc1 (centres undefined)	96%
CC(C)(C)NC(=O)C(c1ccsc1)N(C(=O)c1n[nH]c2ccccc12)c1ccc(F)cc1 (centres undefined)	11%
COc1ccc(N(C(=O)c2ccco2)C(C(=O)NC(C)(C)C)c2cccnc2)cc1 (centres undefined)	10%
CC(=O)Nc1ccc(N(C(=O)Cn2ccnc2C)C(C(=O)NC(C)(C)C)c2ccsc2)cc1 (centres undefined)	17%
CC(C)C(=O)Nc1ccc(N(Cc2ccsc2)C(=O)Cn2cc([Si](C)(C)C)nn2)cc1	15%
CC(C)(C)NC(=O)C(c1ccsc1)N(C(=O)c1n[nH]c2ccccc12)c1ccc(C(C)(C)C)cc1 (centres undefined)	16%
CC(C)(C)NC(=O)C(c1cccnc1)N(C(=O)c1ccc(F)cc1)c1ccc(C(C)(C)C)cc1 (centres undefined)	21%
CC(C)(C)NC(=O)C(c1cccnc1)N(C(=O)c1ccc(C(F)(F)F)nc1)c1ccc(C(C)(C)C)cc1 (centres undefined)	15%
CC(C)(C)NC(=O)C(c1cccnc1)N(C(=O)c1n[nH]c2ccccc12)c1ccc(OC(F)F)cc1 (centres undefined)	24%
CC(C)(C)NC(=O)C(c1cccnc1)N(C(=O)c1ncc[nH]1)c1ccc(C(C)(C)C)cc1 (centres undefined)	22%
CCC(=O)Nc1ccc(N(C(=O)Cn2cnc3ccccc32)C(C(=O)NC(C)(C)C)c2ccsc2)cc1 (centres undefined)	68%
CC(C)(C)NC(=O)C(c1cccnc1)N(C(=O)Cc1cnc[nH]1)c1ccc(C(C)(C)C)cc1 (centres undefined)	24%
CC(C)(C)NC(=O)C(c1cccnc1)N(C(=O)c1ccco1)c1ccc(-c2ccccn2)cc1 (centres undefined)	15%
CC(C)(C)NC(=O)C(c1cc[nH]n1)N(C(=O)c1ccco1)c1ccc(C(C)(C)C)cc1 (centres undefined)	11%
CC(C)(C)NC(=O)C(c1cccnc1)N(C(=O)Cc1cccc2ccccc12)C1CC1 (centres undefined)	11%
